Several values for one entry are separate records, joined by “and”; a condition that tells them apart may be missing. Equal entries are not always repeated. Where two headings read alike, the source gives them in different places.
Columns and labels:
[1] = target: T1, MUTE_ACTLE162A_E163A (Arabidopsis thaliana, UniProt Q9M8K6, E162A/E163A); experiment: BLI direct binding; set-up: species or system A. thaliana; settings: for koff: read-out: kdis(1/s), MUTE_E162A_E163A on Anti-GST sensor
T1 construct: MUTE-ACTL (114-202); made in house; host or cells: E. coli BL21
Description: (§1) A. thaliana SCRM (1-494), ΔNSPCH (98-364), MUTE (1-202), ΔNFAMA (190-414), MUTEΔC (1-114), MUTER133A_R134A, MUTEE162A_E163A, MUTER133A_R134A_E162A_E163A, SCRM-ACTL (405-494), MUTE-ACTL (114-202), SPCH-ACTL (285-364), FAMA-ACTL (306-414), MUTE_ACTLR133A_R134A, MUTE_ACTLE162A_E163A, MUTE_ACTLR133A_R134A_E162A_E163A were cloned into pGEX-4T-1 vector with an N-terminal GST tag and a thrombin cleavage sequence. For protein expression, the constructs were transformed into E. coli strain BL21. For each transformant, a single colony was selected and incubated in 10 ml LB liquid media. The overnight-incubated E. coli suspensions were transferred to 1 L LB medium and incubated at 37 °C for around 2 h until the OD600 reached 0.4–0.6. The isopropyl β-D-1-thiogalactopyranoside ([…] of final concentration) was added to the cultures and the strains were incubated at 22 °C for a further 18 h. GST-fused proteins were purified using glutathione agarose resin. The soluble portion of the cell lysate was loaded onto a GST-Sepharose column. Nonspecifically bound proteins were removed by washing the column with 20 mM Tris pH 8.0, 200 mM NaCl. The bound GST-fused protein was eluted with 10 mm glutathione and 20 mM Tris pH 8.0, 200 mM NaCl. The GST-fused proteins were exchanged with phosphate-buffered saline buffer, and then the solution was treated with 50 μg of thrombin for 10–12 h at 16 ^οC. The GST portion of the protein was cleaved during thrombin digestion, and then the whole solution was reloaded onto the glutathione S-transferase column to obtain pure protein. The purified proteins were further purified by gel filtration on a Superdex-200 (GE) column using fast protein liquid chromatography and phosphate buffer (pH 7.2) as the eluent. The purity of the protein was checked by SDS-PAGE. For detailed lists of oligo DNA and plasmid information, see Supplementary Tables 5, 6, respectively.
(§2) The binding affinities of SCRM to MUTE / MUTER133A_R134A / MUTEE162A_E163A / MUTER133A_R134A_E162A_E163A in presence and absence of Stomidazolone (3) and its analogues (AYSJ1059 (5) and AYSJ1061 (6)), and Stomidazolone / AYSJ1059 / AYSJ1061 interactions with GST-tagged SCRM, MUTE, SPCH, FAMA, MUTE ΔACTL, MUTE_ACTL, SCRM_ACTL, SPCH_ACTL and FAMA_ACTL, MUTER133A_134A, MUTEE162A_E163A, MUTER133A_R134A_E162A_E163A were measured using the Octet Red96 system (ForteBio, Pall Life Sciences) following the manufacturer’s protocols. The optical probes coated with anti-GST were first loaded with 500 nM GST tagged proteins before kinetic binding analyses. The experiment was performed in 96-well plates maintained at 30 °C. Each well was loaded with 200 μL reaction volume for the experiment. The binding buffer used in these experiments contained 1× PBS supplemented with 2% DMSO, 0.02% Tween20. The concentrations of the Stomidazolone as the analyte in the binding buffer were 100, 50, 25, 12.5, 6.25, 3.12, and 1.56 μM. There was no binding of the analytes to the unloaded probes as shown by the control wells. Binding kinetics to all seven concentrations of the analytes were measured simultaneously using default parameters on the instrument. The data were analyzed using the Octet data analysis software. The association and dissociation curves were fit with the 1:1 homogeneous ligand model. The kobs (observed rate constant) values were used to calculate Kd, with steady-state analysis of the direct binding. See Supplementary Table 3 for details.

[2] = target: T2, SCRM_ACTL (Arabidopsis thaliana, UniProt Q9LSE2); experiment: BLI direct binding; set-up: species or system A. thaliana
T2 construct: SCRM-ACTL (405-494); GST (N, cleaved yes); made in house; host or cells: E. coli BL21
T2 sequence (Q9LSE2 405-494): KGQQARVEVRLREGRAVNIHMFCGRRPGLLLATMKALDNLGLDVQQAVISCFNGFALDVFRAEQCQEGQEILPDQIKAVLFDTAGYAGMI
Description: as §1, §2

[3] = MUTE_E162A_E163A on Anti-GST sensor, Stomid 3.12 µM, rep-1, rep-2
[4] = MUTE_E162A_E163A on Anti-GST sensor, Stomid 6.25 µM, rep-1, rep-2
[5] = MUTE_E162A_E163A on Anti-GST sensor, Stomid 12.5 µM, rep-1, rep-2
[6] = MUTE_E162A_E163A on Anti-GST sensor, Stomid 25 µM, rep-1, rep-2
[7] = MUTE_E162A_E163A on Anti-GST sensor, Stomid 50 µM, rep-1, rep-2
[8] = MUTE_E162A_E163A on Anti-GST sensor, Stomid 100 µM, rep-1, rep-2
[9] = MUTE_E162A_E163A on Anti-GST sensor, Stomid 200 µM, rep-1, rep-2

T1 sequence (Q9M8K6 114-202 E162A/E163A): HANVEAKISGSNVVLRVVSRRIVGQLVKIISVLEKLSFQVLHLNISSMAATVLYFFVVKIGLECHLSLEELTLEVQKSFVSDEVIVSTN

With `O=C1C(c2ccccc2)=NC(NS(=O)(=O)c2ccccc2)(c2ccccc2)N1S(=O)(=O)c1ccccc1` (centres unmarked) [Stomidazolone] the Kd ([1]; BLI steady state, MUTE_ACTL E162A_E163A, read-out: KD (SS)) was 125 ± 12 µM, the Kd ([1]; BLI, MUTE_ACTL E162A_E163A, read-out: KD) was 88.3 ± 5.5 µM and the RMax [1, 3] was 0.032 and 0.02. For the same molecule, the Response [1, 3] was 0.0312 and 0.0195, the Kd ([1]; MUTE_E162A_E163A on Anti-GST sensor, Stomid 3.12 µM, rep-1, rep-2, read-out: KD) was 86.2 µM and the RMax [1, 4] was 0.055 and 0.045. For the same molecule, the “Req/Rmax(%)” value [1, 4] was 86.2% and 99.9%, the Response [1, 4] was 0.053 and 0.041 and the “kdis” value [1, 4] was 0.25 s⁻¹. For the same molecule, the “kon” value [1, 4] was 2770 M⁻¹ s⁻¹, the Kd ([1]; MUTE_E162A_E163A on Anti-GST sensor, Stomid 6.25 µM, rep-1, rep-2, read-out: KD) was 84.8 µM and 90.2 µM and the RMax [1, 5] was 0.07 and 0.08. The “Req/Rmax(%)” value [1, 5] was 86.2% and 95.1%, the Response [1, 5] was 0.065 and 0.078 and the “kobs” value [1, 5] was 0.00218 s⁻¹ and 0.00344 s⁻¹. For the same molecule, the “kon” value [1, 5] was 2790 M⁻¹ s⁻¹, the Kd ([1]; MUTE_E162A_E163A on Anti-GST sensor, Stomid 12.5 µM, rep-1, rep-2, read-out: KD) was 85.4 µM and 87.9 µM and the “Req/Rmax(%)” value [1, 6] was 83.8% and 88.2%. The “kdis” value [1, 6] was 0.251 s⁻¹, the “kobs” value [1, 6] was 0.0028 s⁻¹ and 0.00329 s⁻¹ and the “kon” value [1, 6] was 2870 M⁻¹ s⁻¹. For the same molecule, the Kd ([1]; MUTE_E162A_E163A on Anti-GST sensor, Stomid 25 µM, rep-1, rep-2, read-out: KD) was 87.7 µM and 87.3 µM, the RMax [1, 7] was 0.145 and 0.18 and the “Req/Rmax(%)” value [1, 7] was 89.7% and 82.4%. For the same molecule, the Response [1, 7] was 0.141 and 0.171, the “kobs” value [1, 7] was 0.00431 s⁻¹ and 0.00272 s⁻¹ and the “kon” value [1, 7] was 2770 M⁻¹ s⁻¹. The Kd ([1]; MUTE_E162A_E163A on Anti-GST sensor, Stomid 50 µM, rep-1, rep-2, read-out: KD) was 87.7 µM and 89 µM, the RMax [1, 8] was 0.256 and 0.23 and the “Req/Rmax(%)” value [1, 8] was 98.6% and 97.1%. For the same molecule, the Response [1, 8] was 0.254 and 0.2296, the “kdis” value [1, 8] was 0.248 s⁻¹ and the “kobs” value [1, 8] was 0.0129 s⁻¹ and 0.00842 s⁻¹. For the same molecule, the “kon” value [1, 8] was 2860 M⁻¹ s⁻¹, the Kd ([1]; MUTE_E162A_E163A on Anti-GST sensor, Stomid 100 µM, rep-1, rep-2, read-out: KD) was 88.7 µM and 86.6 µM and the RMax [1, 9] was 0.275 and 0.3. The “Req/Rmax(%)” value [1, 9] was 100%, the Response [1, 9] was 0.272 and 0.292 and the “kobs” value [1, 9] was 0.0343 s⁻¹. It also gave a Kd ([1]; MUTE_E162A_E163A on Anti-GST sensor, Stomid 200 µM, rep-1, rep-2, read-out: KD) of 89.2 µM, a koff ([1]; Stomid 3.12 µM, rep-1, rep-2) of 0.243 s⁻¹ and a koff ([1]; Stomid 6.25 µM, rep-1, rep-2) of 0.242 s⁻¹. For the same molecule, the koff ([1]; Stomid 12.5 µM, rep-1, rep-2) was 0.245 s⁻¹, the koff ([1]; Stomid 25 µM, rep-1, rep-2) was 0.246 s⁻¹ and the koff ([1]; Stomid 50 µM, rep-1, rep-2) was 0.246 s⁻¹. The koff ([1]; Stomid 100 µM, rep-1, rep-2) was 0.247 s⁻¹, the koff ([1]; Stomid 200 µM, rep-1, rep-2) was 0.25 s⁻¹ and the kon ([1]; read-out: kon(1/Ms), MUTE_E162A_E163A on Anti-GST sensor, Stomid 3.12 µM, rep-1, rep-2) was 2830 M⁻¹ s⁻¹. The kon ([1]; read-out: kon(1/Ms), MUTE_E162A_E163A on Anti-GST sensor, Stomid 6.25 µM, rep-1, rep-2) was 2850 M⁻¹ s⁻¹, the kon ([1]; read-out: kon(1/Ms), MUTE_E162A_E163A on Anti-GST sensor, Stomid 12.5 µM, rep-1, rep-2) was 2870 M⁻¹ s⁻¹ and the kon ([1]; read-out: kon(1/Ms), MUTE_E162A_E163A on Anti-GST sensor, Stomid 25 µM, rep-1, rep-2) was 2800 M⁻¹ s⁻¹. It also gave a kon ([1]; read-out: kon(1/Ms), MUTE_E162A_E163A on Anti-GST sensor, Stomid 50 µM, rep-1, rep-2) of 2810 M⁻¹ s⁻¹, a kon ([1]; read-out: kon(1/Ms), MUTE_E162A_E163A on Anti-GST sensor, Stomid 100 µM, rep-1, rep-2) of 2780 M⁻¹ s⁻¹ and a kon ([1]; read-out: kon(1/Ms), MUTE_E162A_E163A on Anti-GST sensor, Stomid 200 µM, rep-1, rep-2) of 2800 M⁻¹ s⁻¹. It also gave a Kd ([2]; BLI steady state, read-out: KD (SS)) of 76 ± 6.8 µM and a Kd ([2]; BLI, read-out: KD) of 78.2 ± 1.2 µM.

From publication PMC11500415, “Chemical inhibition of stomatal differentiation by perturbation of the master-regulatory bHLH heterodimer via an ACT-Like domain” (Nature Communications, 2024)
